Data on 1 compound can be found in patent US6617358B1, “Anticonvulsant and central nervous system-depressing bis(fluorophenyl)alkylamides and their uses” (NPS Pharmaceuticals, Inc., priority 1997, dated 2003).

This test concerns flexor reflex in normal anesthetized rats. In words: Flexor reflex in normal anesthetized rats (FIG. 3). The conditions noted are these: in comparison to baclofen, FIG. 3 legend only, values not given. Type of test: in vivo, rat. An excerpt:
Baclofen, diazepam (Valium), and tizanidine are effective on different parameters of spasticity (EMG recordings, H-reflex, the H/M ratio, mono- and polysynaptic reflexes, clonus, hyperreflexia) in these models. The flexor reflex is a polysynaptic response elicited by stimulation of the bottom of the foot and models the withdrawal reflex.

In the case of `NC(=O)CC(c1cccc(F)c1)c1cccc(F)c1` [Compound 1, 3,3-bis(3-fluorophenyl)propanamide], the “reduction in the flexor reflex” value is listed as “reduction in the flexor reflex”.
